Laboratory results: PubChem BioAssay (NCI)
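Tested at 5 concentrations; 48 h exposure; 96-well plates; endpoints linearly interpolated, else capped at highest concentration. TGI marks complete inhibition of growth.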

Tests used:
Test in all cases: growth of human tumour cells (NCI), 48 h
UACC-257 melanoma = system: UACC-257 melanoma
SK-MEL-28 melanoma = system: SK-MEL-28 melanoma
DMS 114 small cell lung = system: DMS 114 small cell lung
M14 melanoma = system: M14 melanoma
SW-620 colon = system: SW-620 colon
A549 NSCLC = system: A549 NSCLC
DMS 273 small cell lung = system: DMS 273 small cell lung
MALME-3M melanoma = system: MALME-3M melanoma
HOP-18 NSCLC = system: HOP-18 NSCLC
NCI-H460 lung = system: NCI-H460 lung
SK-MEL-2 melanoma = system: SK-MEL-2 melanoma
M19-MEL melanoma = system: M19-MEL melanoma
A498 renal = system: A498 renal
SR leukemia = system: SR leukemia
ACHN renal = system: ACHN renal
TK-10 renal = system: TK-10 renal
HCT-116 colon = system: HCT-116 colon
SF-268 CNS = system: SF-268 CNS
OVCAR-3 ovarian = system: OVCAR-3 ovarian
SK-MEL-5 melanoma = system: SK-MEL-5 melanoma
HCC-2998 colon = system: HCC-2998 colon
786-0 renal = system: 786-0 renal
NCI-H522 lung = system: NCI-H522 lung
SNB-78 CNS = system: SNB-78 CNS
SNB-75 CNS = system: SNB-75 CNS
LXFL 529 NSCLC = system: LXFL 529 NSCLC
NCI-H226 lung = system: NCI-H226 lung
OVCAR-8 ovarian = system: OVCAR-8 ovarian
NCI-H23 lung = system: NCI-H23 lung
CCRF-CEM leukemia = system: CCRF-CEM leukemia
CAKI-1 renal = system: CAKI-1 renal
HT29 colon = system: HT29 colon
COLO 205 colon = system: COLO 205 colon
SN12C renal = system: SN12C renal
KM20L2 colon = system: KM20L2 colon
EKVX NSCLC = system: EKVX NSCLC
XF 498 CNS = system: XF 498 CNS
HOP-92 NSCLC = system: HOP-92 NSCLC
SNB-19 CNS = system: SNB-19 CNS
UACC-62 melanoma = system: UACC-62 melanoma
IGROV1 ovarian = system: IGROV1 ovarian
U251 CNS = system: U251 CNS
MOLT-4 leukemia = system: MOLT-4 leukemia
RXF 393 renal = system: RXF 393 renal
K-562 leukemia = system: K-562 leukemia
OVCAR-4 ovarian = system: OVCAR-4 ovarian
HCT-15 colon = system: HCT-15 colon
HL-60(TB) leukemia = system: HL-60(TB) leukemia
KM12 colon = system: KM12 colon
UO-31 renal = system: UO-31 renal
SK-OV-3 ovarian = system: SK-OV-3 ovarian
SF-539 CNS = system: SF-539 CNS
HOP-62 NSCLC = system: HOP-62 NSCLC
SF-295 CNS = system: SF-295 CNS
OVCAR-5 ovarian = system: OVCAR-5 ovarian
DLD-1 colon = system: DLD-1 colon
LOX IMVI melanoma = system: LOX IMVI melanoma
RPMI-8226 leukemia = system: RPMI-8226 leukemia

Measured: TGI

Cc1cc(OCC(O)CO)ccc1-c1ccccc1 (centres undefined)
> 100 µM: UACC-257 melanoma | SK-MEL-28 melanoma | DMS 114 small cell lung | M14 melanoma | A549 NSCLC | DMS 273 small cell lung | MALME-3M melanoma | HOP-18 NSCLC | NCI-H460 lung | SK-MEL-2 melanoma | M19-MEL melanoma | SR leukemia | ACHN renal | TK-10 renal | HCT-116 colon | SF-268 CNS | OVCAR-3 ovarian | SK-MEL-5 melanoma | HCC-2998 colon | 786-0 renal | NCI-H522 lung | SNB-78 CNS | SNB-75 CNS | LXFL 529 NSCLC | NCI-H226 lung | OVCAR-8 ovarian | NCI-H23 lung | CCRF-CEM leukemia | CAKI-1 renal | HT29 colon | COLO 205 colon | SN12C renal | KM20L2 colon | EKVX NSCLC | XF 498 CNS | HOP-92 NSCLC | SNB-19 CNS | UACC-62 melanoma | IGROV1 ovarian | U251 CNS | MOLT-4 leukemia | K-562 leukemia | OVCAR-4 ovarian | HCT-15 colon | HL-60(TB) leukemia | KM12 colon | UO-31 renal
23.7 µM: SW-620 colon
80.4 µM: A498 renal
87.1 µM: RXF 393 renal

COc1cc(Nc2cnc3cc(N)ccc3n2)cc(OC)c1OC
28.1 µM: DMS 273 small cell lung
> 100 µM: UACC-257 melanoma | SK-MEL-28 melanoma | DMS 114 small cell lung | M14 melanoma | SW-620 colon | A549 NSCLC | MALME-3M melanoma | HOP-18 NSCLC | NCI-H460 lung | SK-OV-3 ovarian | SF-539 CNS | SK-MEL-2 melanoma | M19-MEL melanoma | A498 renal | SR leukemia | ACHN renal | HOP-62 NSCLC | TK-10 renal | HCT-116 colon | SF-268 CNS | OVCAR-3 ovarian | SK-MEL-5 melanoma | HCC-2998 colon | 786-0 renal | NCI-H522 lung | SF-295 CNS | SNB-75 CNS | LXFL 529 NSCLC | OVCAR-8 ovarian | NCI-H23 lung | CCRF-CEM leukemia | CAKI-1 renal | HT29 colon | COLO 205 colon | OVCAR-5 ovarian | SN12C renal | DLD-1 colon | KM20L2 colon | LOX IMVI melanoma | EKVX NSCLC | XF 498 CNS | HOP-92 NSCLC | SNB-19 CNS | UACC-62 melanoma | IGROV1 ovarian | U251 CNS | MOLT-4 leukemia | K-562 leukemia | OVCAR-4 ovarian | HCT-15 colon | HL-60(TB) leukemia | KM12 colon | UO-31 renal

OCc1nnn2c1CCC2
> 100 µM: UACC-257 melanoma | SK-MEL-28 melanoma | M14 melanoma | SW-620 colon | A549 NSCLC | MALME-3M melanoma | HOP-18 NSCLC | NCI-H460 lung | SK-OV-3 ovarian | SF-539 CNS | SK-MEL-2 melanoma | M19-MEL melanoma | SR leukemia | ACHN renal | HOP-62 NSCLC | TK-10 renal | OVCAR-3 ovarian | SK-MEL-5 melanoma | HCC-2998 colon | NCI-H522 lung | SF-295 CNS | SNB-78 CNS | SNB-75 CNS | LXFL 529 NSCLC | OVCAR-8 ovarian | NCI-H23 lung | CCRF-CEM leukemia | HT29 colon | OVCAR-5 ovarian | SN12C renal | DLD-1 colon | KM20L2 colon | LOX IMVI melanoma | EKVX NSCLC | XF 498 CNS | HOP-92 NSCLC | UACC-62 melanoma | IGROV1 ovarian | U251 CNS | MOLT-4 leukemia | RXF 393 renal | K-562 leukemia | OVCAR-4 ovarian | HCT-15 colon | HL-60(TB) leukemia | KM12 colon | UO-31 renal

CCOC(=O)COc1ccc(OCC(=O)OCC)c2c1C(=O)CCCC2=O
> 100 µM: UACC-257 melanoma | SK-MEL-28 melanoma | DMS 114 small cell lung | M14 melanoma | SW-620 colon | A549 NSCLC | DMS 273 small cell lung | MALME-3M melanoma | HOP-18 NSCLC | NCI-H460 lung | SK-OV-3 ovarian | SF-539 CNS | SK-MEL-2 melanoma | M19-MEL melanoma | SR leukemia | ACHN renal | HOP-62 NSCLC | TK-10 renal | HCT-116 colon | SF-268 CNS | OVCAR-3 ovarian | HCC-2998 colon | 786-0 renal | NCI-H522 lung | SF-295 CNS | SNB-75 CNS | LXFL 529 NSCLC | NCI-H226 lung | OVCAR-8 ovarian | NCI-H23 lung | CCRF-CEM leukemia | HT29 colon | COLO 205 colon | OVCAR-5 ovarian | SN12C renal | DLD-1 colon | KM20L2 colon | LOX IMVI melanoma | EKVX NSCLC | XF 498 CNS | HOP-92 NSCLC | SNB-19 CNS | UACC-62 melanoma | IGROV1 ovarian | U251 CNS | MOLT-4 leukemia | RXF 393 renal | RPMI-8226 leukemia | K-562 leukemia | HCT-15 colon | HL-60(TB) leukemia | KM12 colon | UO-31 renal
0.846 µM: SK-MEL-5 melanoma

COC1CC2C3/C(=N/Nc4ccc([N+](=O)[O-])cc4[N+](=O)[O-])CCC2(C)C3C1 (centres undefined)
> 10 µM: M14 melanoma | SW-620 colon | DMS 273 small cell lung | MALME-3M melanoma | HOP-18 NSCLC | SK-OV-3 ovarian | SF-539 CNS | SK-MEL-2 melanoma | M19-MEL melanoma | A498 renal | ACHN renal | HOP-62 NSCLC | OVCAR-3 ovarian | SK-MEL-5 melanoma | HCC-2998 colon | 786-0 renal | NCI-H522 lung | SF-295 CNS | SNB-75 CNS | LXFL 529 NSCLC | NCI-H226 lung | NCI-H23 lung | CAKI-1 renal | HT29 colon | COLO 205 colon | OVCAR-5 ovarian | SN12C renal | DLD-1 colon | KM20L2 colon | LOX IMVI melanoma | HOP-92 NSCLC | SNB-19 CNS | UACC-62 melanoma | IGROV1 ovarian | U251 CNS | OVCAR-4 ovarian | UO-31 renal
> 100 µM: UACC-257 melanoma | SK-MEL-28 melanoma | DMS 114 small cell lung | A549 NSCLC | NCI-H460 lung | SR leukemia | TK-10 renal | HCT-116 colon | SF-268 CNS | OVCAR-8 ovarian | XF 498 CNS | MOLT-4 leukemia | RPMI-8226 leukemia | K-562 leukemia | HCT-15 colon | HL-60(TB) leukemia | KM12 colon
